Values quoted from earlier work in patent US20240164377A1, “LOW VOLATILITY PROMOTING WATER CONDITIONING ADJUVANTS” (Adjuvants Unlimited LLC, priority 2014, published 2024).

SMILES: COc1c(Cl)ccc(Cl)c1C(=O)O [free acid form of dicamba, 3,6-dichloro-2-methoxybenzoic acid]
- Volatility relative to the diglycolamine salt (reported, see WO 2011/019652 A2): about 100 times

SMILES: COc1c(Cl)ccc(Cl)c1C(=O)O.NCCOCCO [diglycolamine salt of dicamba]
- Volatility compared with another salt (in words) (background statement): lower volatility than the dimethylamine salt of dicamba
